“And” between values parts separate entries of the source, which are not always exact repeats. Equal entries are not always repeated.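 Assay format: 96-well plates, 48-hour exposure. GI50 marks 50% less growth. TGI: total growth inhibition.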
What was measured:
Test in all cases: NCI tumour cell line growth inhibition, 48 h
NCI-H23 lung = test system: NCI-H23 lung
K-562 leukemia = test system: K-562 leukemia
OVCAR-5 ovarian = test system: OVCAR-5 ovarian
HCT-15 colon = test system: HCT-15 colon
EKVX NSCLC = test system: EKVX NSCLC
MOLT-4 leukemia = test system: MOLT-4 leukemia
NCI/ADR-RES ovarian = test system: NCI/ADR-RES ovarian
MDA-MB-435 = test system: MDA-MB-435
OVCAR-4 ovarian = test system: OVCAR-4 ovarian
HCC-2998 colon = test system: HCC-2998 colon

Row | SMILES | TGI (NCI-H23 lung) | TGI (K-562 leukemia) | TGI (OVCAR-5 ovarian) | TGI (HCT-15 colon) | TGI (EKVX NSCLC) | TGI (MOLT-4 leukemia) | GI50 (NCI-H23 lung) | GI50 (NCI/ADR-RES ovarian) | TGI (NCI/ADR-RES ovarian) | GI50 (K-562 leukemia) | GI50 (OVCAR-5 ovarian) | GI50 (MDA-MB-435) | TGI (MDA-MB-435) | GI50 (OVCAR-4 ovarian) | TGI (OVCAR-4 ovarian) | GI50 (HCC-2998 colon) | TGI (HCC-2998 colon) | GI50 (HCT-15 colon) | GI50 (MOLT-4 leukemia) | GI50 (EKVX NSCLC)
1 | CCc1cc(CCC(=O)Nc2ccccc2[N+](=O)[O-])[nH]c(=S)n1 | > 100 µM | > 100 µM | > 100 µM | > 100 µM | > 100 µM | > 100 µM |  |  |  |  |  |  |  |  |  |  |  |  |  | 
2 | C/C(O)=C(\C#N)C(=O)Nc1ccc(C(F)(F)F)cc1 | > 100 µM | > 100 µM | > 100 µM | > 100 µM |  | > 100 µM | 73.7 µM | 21.4 µM | > 100 µM | 8.13 µM | > 100 µM | 37.1 µM | > 100 µM | 91 µM | > 100 µM | 45.2 µM | > 100 µM | 5.96 µM | 67.9 µM | 
3 | Cn1c(N)nc(=O)c2c1N(C1OC(CO)C(O)C1O)CN2Cc1ccccc1 (stereo not drawn) | > 100 µM | > 100 µM | > 100 µM | > 100 µM | > 100 µM | > 100 µM |  |  |  |  |  |  |  |  | > 100 µM |  | > 100 µM |  |  | 
4 | C=C1C(OC(=O)/C=C/c2ccccc2)CC(OC(C)=O)C2(C)C1CC1CC(OC(C)=O)C(C)=C(C(OC(C)=O)C2OC(C)=O)C1(C)C (stereo not drawn) |  | > 100 µM | > 100 µM | > 100 µM |  | > 100 µM |  |  |  |  |  |  |  |  |  |  | > 100 µM |  |  | 
5 | COc1ccc(/C=C2\CCC(CCN(C)C)(C3=CCCC3)C2=O)cc1Br (stereo not drawn) | 29 µM | 5.23 µM | 27.1 µM | 15.5 µM | 8.62 µM | 6.01 µM |  |  |  |  |  |  |  |  | 14.5 µM |  | 4.71 µM |  |  | 
6 | O=C(O/N=C1/CCC/C1=C\c1ccccc1)c1ccc(Cl)c(Cl)c1 | > 100 µM | > 100 µM | > 100 µM | > 100 µM | > 100 µM | > 100 µM |  |  |  |  |  |  |  |  | > 100 µM |  | > 100 µM |  |  | 
7 | NS(=O)(=O)c1ccc(N(/C=C/C(=O)C(F)(F)F)Cc2ccc(Cl)cc2)cc1 | 64.3 µM | > 100 µM | > 100 µM | 87.2 µM | 49.6 µM | > 100 µM | 21.8 µM | 15.3 µM | 54.9 µM | 38.9 µM | 28.7 µM | 30.6 µM | 96.5 µM |  |  | 18.1 µM | 35.5 µM | 31.1 µM | 40.1 µM | 22.5 µM
8 | CCc1ccc(C(=Nc2ccc(N(C)C(=O)CN3CCN(C)CC3)cc2)c2c(O)[nH]c3ccc(C(=O)OC)cc23)cc1 | 2.03 µM | 1.12 µM | 2.57 µM | 1.25 µM | 2.36 µM | 0.908 µM | 0.417 µM |  |  | 0.073 µM | 1.25 µM | 0.532 µM | 1.9 µM | 0.582 µM | 1.95 µM | 0.587 µM | 1.95 µM | 0.277 µM | 0.176 µM | 0.788 µM
9 | CCOC(=O)c1cnc2c(ccc3ncccc32)c1NCCCN(CC)CC | > 100 µM | > 100 µM | > 100 µM | > 100 µM | > 100 µM | 72.2 µM |  |  |  |  |  |  |  |  | > 100 µM |  | > 100 µM |  |  | 
10 | COC(=O)C12OCC34C(CC5C(C)C6=CC(=O)OC6=CC5(C)C3C(O)C1O)OC(=O)C(O)C24 (stereo not drawn) | 0.493 µM and 1.16 µM | 6.94 µM | 20.3 µM | 12.9 µM |  | 0.375 µM and 1.27 µM | 0.156 µM |  |  | 0.0468 µM | 0.599 µM |  |  | 0.155 µM |  | 0.075 µM | 0.347 µM and 0.676 µM | 0.458 µM | 0.0314 µM | 0.249 µM
11 | CC1(N)CCN(c2cnc(-c3cccc(Cl)c3Cl)c(N)n2)CC1 | > 100 µM |  | > 100 µM | > 100 µM | > 100 µM | 99.3 µM | 5.99 µM | 17 µM | > 100 µM |  | 27.7 µM | 28.3 µM | > 100 µM | 7.47 µM | > 100 µM | 22 µM | 77.6 µM | 28.3 µM | 22.7 µM | 2.58 µM
12 | CCOC(=O)C(CC/C=C\c1ccccc1)N1CCC[C@H]1C(=O)OC (stereo partly drawn) | > 100 µM | > 100 µM | > 100 µM |  | > 100 µM | > 100 µM |  |  |  |  |  |  |  |  | > 100 µM |  | > 100 µM |  |  | 
13 | Cc1cccc2c1CCC21OC(=O)c2c1ccc1ccccc21 (stereo not drawn) | 98.7 µM | 66.7 µM | > 100 µM | > 100 µM | > 100 µM | 79.8 µM |  |  |  |  |  |  |  |  | > 100 µM |  | > 100 µM |  |  | 
14 | N#Cc1cc(S(=O)(=O)Nc2nnc(-c3ccccc3)c(-c3ccccc3)n2)c(SCc2ccccc2)cc1Cl | > 100 µM | > 100 µM |  | 33.3 µM | 48.7 µM | > 100 µM | > 100 µM |  |  | 27.2 µM |  | 21.2 µM | 45.1 µM | 33.9 µM | 87 µM | > 100 µM | > 100 µM | 17.4 µM | 9.82 µM | 22.8 µM
15 | O=C1C2C(C(=O)N1c1ccccc1)C1([N+](=O)[O-])C=C3c4ccccc4N(C(=O)c4ccccc4)C32C2C(=O)N(c3ccccc3)C(=O)C21 (stereo not drawn) | > 100 µM | > 100 µM | > 100 µM | > 100 µM |  | > 100 µM |  |  |  |  |  |  |  |  |  |  | > 100 µM |  |  | 
16 | CCCCCCCCCNC(=O)/C=C/c1ccc(O)c(O)c1 | 39.2 µM |  | 45.8 µM | 19.9 µM | > 100 µM | 17.4 µM | 17.7 µM | 15.4 µM | 46.8 µM |  | 21.5 µM | 7.58 µM | 23.5 µM | 13.4 µM | > 100 µM | 16 µM | 31.4 µM | 5.25 µM | 0.474 µM | 37.5 µM
17 | O=NNc1ccc(Sc2ccc(NN=O)cn2)nc1 | > 100 µM | > 100 µM | > 100 µM | > 100 µM | > 100 µM | > 100 µM |  |  | > 100 µM |  |  |  |  |  | > 100 µM |  | > 100 µM |  |  | 
18 | Cc1cccc(C(C)(C)C)c1NC(=O)CCc1nc(=S)[nH][nH]1 | > 100 µM | > 100 µM | > 100 µM | > 100 µM |  | > 100 µM |  |  |  |  |  |  |  |  | > 100 µM |  | > 100 µM |  |  | 
19 | CC(C)(C)c1ccc(OCCOCCOc2ccc(C(C)(C)C)cc2S(=O)(=O)Nc2ccc([N+](=O)[O-])cc2)c(S(=O)(=O)Nc2ccc([N+](=O)[O-])cc2)c1 | > 100 µM | > 100 µM | > 100 µM | > 100 µM | > 100 µM | 43.9 µM |  |  |  |  |  |  |  |  | > 100 µM |  | > 100 µM |  |  | 
